# Measurements as given in patent publication US10787607B2, “High efficiency fluorescent compound and method for preparing the same” (SNU R&DB FOUNDATION, priority 2011, dated 2020).
# Assays:
# [1] = test system: Caspase-3 and PARP in osteosarcoma cell line (U2OS); experiment: Western Blotting Test, osteosarcoma cell line (U2OS); type: cell-based; conditions: U2OS cells, 10 μM, FIG. 14
# Method: (§1) After a certain period of time, the degree of cell extinction is evaluated by examining the degree of expression of extinction and damage of a specific factor by using Western Blotting Test and the result is shown in FIG. 14.
# [2] = test system: breast epithelial cell line; experiment: Cytomorphology Test (microscopic examination of cultured cells); type: cell-based; conditions: cultured about 72 hours, FIG. 12
# Method: (§2) In the presence of a test compound or a comparative compound, a cell line is cultured for a certain period of time (about 72 hours) and then a cytotoxicity test is conducted. As a control group, a blank test is conducted in the same manner as above without adding any compound including the test compound and the comparative compound.
# breast epithelial cell = experiment: Trypan Blue Exclusion Test; type: cell-based; conditions: both test concentrations 1 μM and 10 μM, FIG. 13
# Method: as §2
# [3] = test system: Caspase-3 and PARP in breast epithelial cell line; experiment: Western Blotting Test, breast epithelial cell line; type: cell-based; conditions: breast epithelial cell line, 1, 10 and 100 μM, FIG. 14
# Method: as §1
# [4] = in ethanol; cited from earlier work
compound,measurement,setting,value
COc1cc([C@@H]2c3cc4c(cc3[C@@H](O[C@@H]3O[C@@H]5CO[C@@H](C)O[C@H]5[C@H](O)[C@H]3O)[C@H]3COC(=O)[C@H]23)OCO4)cc(OC)c1O [Etoposide],"Western blot peaks from cell extinction and damage (Caspase-3, PARP)",[1],"significantly remarkable peak at 17 kDa, 19 kDa and 89 kDa positions"
"CC(=O)/C=C/c1ccc2cc(O)cc(O)c2c1 [Example 1, (E)-4-(6,8-dihydroxynaphthalen-2-yl)but-3-en-2-one]",cytomorphology and number change of the cultured cell vs control group,[2],no significant difference from the control group
same,number of cells alive (trypan blue) vs control group,breast epithelial cell,number of cells similar to that of the control group
same,"Western blot peaks from cell extinction and damage (Caspase-3, PARP)",[3],"no peak at 17 kDa, 19 kDa and 89 kDa positions"
CCN=c1cc2oc3cc(NCC)c(C)cc3c(-c3ccccc3C(=O)OCC)c-2cc1C.Cl [rhodamin 6G],quantum yield of reference standard,[4],0.95
